Results as given in patent publication US11865110B2, “Thrombin inhibitors, formulations, and uses thereof” (VERSEON INTERNATIONAL CORPORATION, priority 2018, dated 2024).

How the values were obtained:
thrombin = molecular target: T1, thrombin (Homo sapiens, UniProt P00734); assay: Human Thrombin Generation Assay (TGA); format: biochemical; settings: concentration that reduces endogenous thrombin potential AUC by 50%; human plasma; read-out: ETP EC50
T1 construct: from tissue; host or cells: human plasma (thrombin generated in situ by tissue factor, phospholipids and CaCl2)
Description: Results for the human thrombin generation assay (TGA; not to be confused with “thermogravimetric analysis” which is used elsewhere and carries the same acronym. One of skill in the art will appreciate which meaning is intended based on context of the surrounding technical information.) were generated as follows. In a 96-well plate, 4 μL of 100, 33.3, 11.1, 3.7, 1.23, 0.41, 0.137, and 0.046 μM solutions of the test compounds in DMSO were added to sequential wells filled with 68 μL of a “TGA Working Solution.” See description of this solution as well as other relevant solutions below. The plate was incubated at room temperature for 10 minutes, whereupon 8 μL of warm “Substrate Solution” was added to each well, resulting in a 500 μM concentration of the substrate, Z-GGR-AMC (Z-Gly-Gly-Arg-7-amino-4-methylcoumarin·HCl), in each well. Fluorescence intensity data (Ex/Em 380/460 nm) collection began immediately using a Cytation™ or Synergy™ H1 96-well plate reader set to incubate the plate at 37° C. over the data collection time of 90 minutes following double-orbital shaking for a period of 4 seconds. Test compounds were measured parallel to blanks and controls, as well as to wells of the substrate in DMSO at various concentrations (2.50, 0.833, 0.278, 0.093 mM) in the buffers to generate a standard fluorescence curve. Data values were computed automatically, including the ETP EC50 value of the AUC, which is the concentration of the compound that reduces endogenous thrombin potential AUC by 50%.
The various solutions were prepared as follows. A HEPES/NaCl Assay buffer was made by combining 7.5 mL of 5M NaCl, 1.19 g 4-(2-hydroxyethyl)piperazine-1-ethanesulfonic acid (HEPES) and 230 mL of water. An “Innovin Master Solution” was made by combining 20 μL of Siemens Dade Innovin recombinant tissue factor and thromboplastin with 50 μL of 0.5 mM phospholipid-TGT acquired from DiaPharma® in 450 μL of the above HEPES/NaCl Assay buffer. This solution was then vortexed for a few seconds. Next the “Substrate Master Solution” was made by adding 3.2 mL DMSO to 100 mg of Z-GGR-AMC (Z-Gly-Gly-Arg-7-amino-4-methylcoumarin·HCl) and vortexing in a polystyrene tube. This solution was stored at −20° C. A “TGA Working Solution” was prepared by adding 6.2 mL of human plasma, 50 μL of the Innovin Master Solution, and 80 μL of phospholipids to 2.6 mL of HEPES/NaCl Assay buffer. A “Substrate Working Solution” was made immediately before addition to the assay plate by adding 200 μL of the above “Substrate Master Solution” to a pre-warmed (37° C.) mixture of 1.46 mL of HEPES/NaCl Assay buffer and 340 μL of 1M CaCl2).
For additional description of this assay, please see Robert, S. et al. ‘Is thrombin generation the new rapid, reliable and relevant pharmacological tool for the development of anticoagulant drugs?’2009, Pharmacol Res 59:160-6 as well as Hemker, H. C. et al. ‘Calibrated automated thrombin generation measurement in clotting plasma.’ 2003, Pathophysiol Haemost Thromb 33:4-15.

Mouse plasma stability = format: in vitro ADME, mouse (CD-1); settings: CD-1 mouse plasma, 37° C., time points to 160 min; read-out: Mouse Plasma Stability t1/2
Description: Alongside a positive control of propantheline bromide, 8 μL of a 1 mM solution of each test compound in DMSO was placed in two wells of a Nunc™ 96-well plate called the “dilution plate.” To one well, 392 μL of HyClone™ water was added and mixed by a pipette. To the other well, 392 μL of mouse or rat plasma stabilized with sodium citrate purchased from Innovative Research was added and mixed by a pipette. The dilution plate was kept covered to reduce solvent evaporation and heated in an incubator at 37° C. At each of the time points enumerated below, the plate was removed from the incubator and 50 μL of the test compound/water or test compound/plasma solutions were transferred to a unique, corresponding well in a “quench plate” (96-well Costar® plate) that contains 150 μL of a quench solution that contains an internal standard (20 uM diclofenac in acetonitrile). The dilution plate was then returned to the incubator. This process was performed at 0, 5, 10, 20, 40, 80, and 160 minutes from the original mixing of the test compounds with the water or plasma in the dilution plate. After the quenching of the 160-minute time point, the quench plate was then centrifuged at 4° C. at 1000×g for 10 minutes. 100 μL of the supernatant of each well were then transferred to corresponding unique wells in a “read plate” (96-well Costar® plate) that were filled with 100 μL of HyClone™ water. The plate was then sealed and analyzed via UHPLC using a 10-μL sample injection through a Phenomenex® Kinetex column pre-equilibrated with the loading buffer (95:5 water:acetonitrile). The parameters were as follows. Mobile Phase A: water, 0.025% formic acid. Mobile Phase B: acetonitrile, 0.025% formic acid. Flow Rate: 0.5 mL/min. […] Half-life (t1/2) times were computed by using a chi-square analysis to fit the peak areas to an exponential decay model for compound concentration as a function of time.

[1] = Mouse liver microsome stability; format: in vitro ADME, mouse (CD-1); settings: pH 7.4; CD-1 mouse liver microsomes 0.5 mg/mL, NADPH, 37° C.; lower measurable bound 5
Description: In a 96-well Nunc™ plate, 1.5 μL of a 200 μM solution of the test compound in DMSO were placed in a well. This plate, the “Reaction Plate,” was then warmed to 37° C. in an oven. In a second 96-well Nunc™ plate, the “Quench Plate,” six wells were filled with 180 μL of an internal standard quench solution composed of 100 nM diclofenac in acetonitrile. These six wells correspond to the six time points for data collection: 0, 0.5, 5, 15, 30, and 60 minutes. “Assay Buffer” was prepared by combining 6.96 g potassium phosphate, dibasic, 1.36 g potassium phosphate, monobasic, and 0.30 g of magnesium chloride hexahydrate, then diluting to a final concentration of 500 mL in water and adjusting to pH 7.4, as needed. Assay Buffer was warmed to 37° C., and 12 mL were added to a 10-mg vial of NADPH. Then 300 μL of a 20 mg/mL liver microsome suspension were added to yield a 0.5 mg/mL liver microsome suspension. 300 μL of this liver microsome suspension was then added to the test compound solution in the Reaction Plate and mixed thoroughly with a pipette tip. At each time point, 30 μL of this mixture was transferred to the corresponding well of the Quench Plate. In between time points, the Reaction Plate was kept sealed and warmed in an incubator at 37° C. When the last time point had been completed, the quench plate was centrifuged at 4° C. at 1000×g for 10 minutes. Afterwards, 50 μL of the supernatant of each well was transferred to unique, corresponding wells of a 96-well Costar® plate, the “Analysis Plate,” filled with 150 μL of 50:50 acetonitrile:HyClone™ water. The Analysis Plate was then sealed with a pre-slit plate seal before analysis via an appropriate LCMS method with a 10 μL injection. The abstracted AUC data were then automatically plotted to calculate intrinsic clearance in μL/min/mg. This experiment was run alongside a positive and negative control. Due to the parameters of this procedure, one of skill in the art will appreciate that this assay has a lower measurable bound of 5 μL/min/mg; therefore, certain compounds have their clearances labeled as ≤5 μL/min/mg.

malignant breast tumors = settings: treated mice, cited from earlier work

Row | Compound | EC50 (thrombin) [nM] | further results
1 | C=CCOC(=O)CCn1cccc(-c2cc(NCc3ccc(Cl)s3)n(C(=O)C(C)(C)C)n2)c1=O [Compound 16, prop-2-en-1-yl 3-[3-(5-{[(5-chlorothiophen-2-yl)methyl]amino}-1-(2,2-dimethylpropanoyl)-1H-pyrazol-3-yl)-2-oxo-1,2-dihydropyridin-1-yl]propanoate] | 1900 | –
2 | [2H]C([2H])(C(=O)O)C([2H])([2H])n1cccc(-c2cc(NCc3ccc(Cl)s3)n(C(=O)C(C)(C)C)n2)c1=O [Compound 22, 3-[3-(5-{[(5-chlorothiophen-2-yl)methyl]amino}-1-(2,2-dimethylpropanoyl)-1H-pyrazol-3-yl)-2-oxo-1,2-dihydropyridin-1-yl](2H4)propanoic acid] | 1900 | –
3 | CC(C)(CO)C(=O)n1nc(-c2cccn(CCC(=O)O)c2=O)cc1NCc1ccc(Cl)s1 [Compound 10, 3-[3-(5-{[(5-chlorothiophen-2-yl)methyl]amino}-1-(3-hydroxy-2,2-dimethylpropanoyl)-1H-pyrazol-3-yl)-2-oxo-1,2-dihydropyridin-1-yl]propanoic acid] | 1700 to 10000 | half-life at 20 µM (Mouse plasma stability): 1.17 h; microsomal CLint at 1 µM [1]: 4 µL/min/mg
4 | CC(=O)OC(C)OC(=O)CCn1cccc(-c2cc(NCc3ccc(Cl)s3)n(C(=O)C(C)(C)C)n2)c1=O (stereo not shown) [Compound 18, 1-(acetyloxy)ethyl 3-[3-(5-{[(5-chlorothiophen-2-yl)methyl]amino}-1-(2,2-dimethylpropanoyl)-1H-pyrazol-3-yl)-2-oxo-1,2-dihydropyridin-1-yl]propanoate] | 1300 | –
5 | CC(C)(C)C(=O)n1nc(-c2cccn(CC(F)(F)C(=O)O)c2=O)cc1NCc1ccc(Cl)s1 [Compound 6, 3-[3-(5-{[(5-chlorothiophen-2-yl)methyl]amino}-1-(2,2-dimethylpropanoyl)-1H-pyrazol-3-yl)-2-oxo-1,2-dihydropyridin-1-yl]-2,2-difluoropropanoic acid] | 5400 | half-life at 20 µM (Mouse plasma stability): 0.117 h; microsomal CLint at 1 µM [1]: 9 µL/min/mg
6 | CC(=O)OCCOC(=O)CCn1cccc(-c2cc(NCc3ccc(Cl)s3)n(C(=O)C(C)(C)C)n2)c1=O [Compound 17, 2-(acetyloxy)ethyl 3-[3-(5-{[(5-chlorothiophen-2-yl)methyl]amino}-1-(2,2-dimethylpropanoyl)-1H-pyrazol-3-yl)-2-oxo-1,2-dihydropyridin-1-yl]propanoate] | 1200 | –
7 | CC(C)[C@H](NC(=O)OC(C)(C)C)C(=O)OCOC(=O)CCn1cccc(-c2cc(NCc3ccc(Cl)s3)n(C(=O)C(C)(C)C)n2)c1=O [Compound 21, ({3-[3-(5-{[(5-chlorothiophen-2-yl)methyl]amino}-1-(2,2-dimethylpropanoyl)-1H-pyrazol-3-yl)-2-oxo-1,2-dihydropyridin-1-yl]propanoyl}oxy)methyl (2S)-2-{[(tert-butoxy)carbonyl]amino}-3-methylbutanoate] | 4800 | –
8 | CCCCCCOC(=O)N=C(N)c1ccc(NCc2nc3cc(C(=O)N(CCC(=O)OCC)c4ccccn4)ccc3n2C)cc1 [dabigatran etexilate] | – | reduction in tumor volume (malignant breast tumors; at 4 weeks): 50%; reduction of tumor cells in the blood and liver micrometastases (malignant breast tumors): 50-60%
9 | COCCn1cccc(-c2cc(NCc3ccc(Cl)s3)n(C(=O)C(C)(C)C)n2)c1=O [Compound 7, 3-(5-{[(5-chlorothiophen-2-yl)methyl]amino}-1-(2,2-dimethylpropanoyl)-1H-pyrazol-3-yl)-1-(2-methoxyethyl)-1,2-dihydropyridin-2-one] | 850 to 970 | half-life at 20 µM (Mouse plasma stability): ≥ 5 h; microsomal CLint at 1 µM [1]: 290 µL/min/mg
10 | Cc1nc(C)c(COC(=O)CCn2cccc(-c3cc(NCc4ccc(Cl)s4)n(C(=O)C(C)(C)C)n3)c2=O)nc1C [Compound 20, (3,5,6-trimethylpyrazin-2-yl)methyl 3-[3-(5-{[(5-chlorothiophen-2-yl)methyl]amino}-1-(2,2-dimethylpropanoyl)-1H-pyrazol-3-yl)-2-oxo-1,2-dihydropyridin-1-yl]propanoate] | 2400 | –
11 | CCOC(=O)CCn1cccc(-c2cc(NCc3ccc(Cl)s3)n(C(=O)C(C)(C)C)n2)c1=O [Compound 15, ethyl 3-[3-(5-{[(5-chlorothiophen-2-yl)methyl]amino}-1-(2,2-dimethylpropanoyl)-1H-pyrazol-3-yl)-2-oxo-1,2-dihydropyridin-1-yl]propanoate] | 2900 | –
12 | [2H]C([2H])(Nc1cc(-c2cccn(CCC(=O)O)c2=O)nn1C(=O)C(C)(C)C)c1ccc(Cl)s1 [Compound 24, 3-[3-(5-{[(5-chlorothiophen-2-yl)(2H2)methyl]amino}-1-(2,2-dimethylpropanoyl)-1H-pyrazol-3-yl)-2-oxo-1,2-dihydropyridin-1-yl]propanoic acid] | 2400 | –
